Measured values taken from patent US12509424B2, “Compound and composition as PDGF receptor kinase inhibitor” (NIPPON SHINYAKU CO., LTD., priority 2019, dated 2025).

Experiments:
PDGFR-β = PDGFR-β (Homo sapiens (Human), UniProt P09619); test: PDGFR-β tyrosine kinase inhibitory action (HTRF KinEASE-TK); assay type: biochemical; conditions: PDGFR-β enzyme 1 ng/μL, 30° C. for 30 minutes; read-out: PDGF-β IC50
Experimental: (§1) 1. Preparation of Test Substance
This DMSO solution was diluted by 8 times with an assay buffer 1 (50 mM HEPES (pH 7.0), 0.02% NaN3, 0.01% Bovine Serum Albumin, 0.1 mM orthovanadate, 1 mM Dithiothreitol, 5 mM MgCl2, and 1 mM MnCl2) and further diluted by 5 times with an assay buffer 2 (50 mM HEPES (pH 7.0), 0.02% NaN3, 0.01% Bovine Serum Albumin, 0.1 mM orthovanadate, 1 mM Dithiothreitol, 5 mM MgCl2, 1 mM MnCl2, and 40 nM Supplemented Enzymatic Buffer (cisbio)).
2. Measurement of PDGFR-β Tyrosine Kinase Inhibitory Action
For the measurement, the HTRF KinEASE-TK kit from Cisbio Bioassays SAS was used. To a 384 well plate, the test substance solution was added at 4 μL each, then 2 μL of a PDGFR-β enzyme solution (final concentration of 1 ng/μL, Carna Biosciences, Inc.) and 4 μL of a substrate solution obtained by adding 0.6 μM ATP to TK substrate-3-biotin (cisbio) were added, and the solution was allowed to react at 30° C. for 30 minutes at a final concentration of the test substance being 0.01 to 10,000 nM.
Thereafter, 10 μL of a detection solution (cisbio) was added to each well and allowed to react at 30° C. for 1 hour. The fluorescence intensity was measured with a microplate reader (Spectra Max M5, Molecular device).
(§2) 3. Analysis of Measurement Results

[1] = system: pulmonary arterial smooth muscle cells; test: Suppression of proliferation of pulmonary arterial smooth muscle cells (PDGF-BB stimulation, BrdU); assay type: cell-based; conditions: PASMC, 24 h; healthy human derived pulmonary arterial smooth muscle cells; human PDGF-BB 10 ng/mL stimulation; BrdU uptake after 1 day; test substance final concentration 3 to 10,000 nM; read-out: Human normal PASMC proliferation suppression (PDGF stimulation_IC50)
Experimental: as §1
Furthermore, it was diluted by 50 times with distilled water.
2. Measurement of Suppression Action Against Proliferation of Pulmonary Arterial Smooth Muscle Cells
The day after healthy human derived pulmonary arterial smooth muscle cells were seeded onto a 96 well plate using a smooth muscle cell proliferation medium, the proliferation medium was replaced with a 0.1% FBS medium, and the cells were cultured for an additional day. A test substance solution was diluted by 10 times with a medium containing BrdU and human PDGF-BB (final concentration of 10 ng/mL, Sigma-Aldrich) and added to cells in equal amounts so as to reach a final concentration of 3 to 10,000 nM. Also, to the human PDGF-BB negative control, BrdU and 0.1% DMSO solution were added. After culturing for 1 day, the amount of BrdU taken up by the proliferating cells was measured using an anti-BrdU antibody.
as §2

PDGFR-β, sequence (P09619 33-1106): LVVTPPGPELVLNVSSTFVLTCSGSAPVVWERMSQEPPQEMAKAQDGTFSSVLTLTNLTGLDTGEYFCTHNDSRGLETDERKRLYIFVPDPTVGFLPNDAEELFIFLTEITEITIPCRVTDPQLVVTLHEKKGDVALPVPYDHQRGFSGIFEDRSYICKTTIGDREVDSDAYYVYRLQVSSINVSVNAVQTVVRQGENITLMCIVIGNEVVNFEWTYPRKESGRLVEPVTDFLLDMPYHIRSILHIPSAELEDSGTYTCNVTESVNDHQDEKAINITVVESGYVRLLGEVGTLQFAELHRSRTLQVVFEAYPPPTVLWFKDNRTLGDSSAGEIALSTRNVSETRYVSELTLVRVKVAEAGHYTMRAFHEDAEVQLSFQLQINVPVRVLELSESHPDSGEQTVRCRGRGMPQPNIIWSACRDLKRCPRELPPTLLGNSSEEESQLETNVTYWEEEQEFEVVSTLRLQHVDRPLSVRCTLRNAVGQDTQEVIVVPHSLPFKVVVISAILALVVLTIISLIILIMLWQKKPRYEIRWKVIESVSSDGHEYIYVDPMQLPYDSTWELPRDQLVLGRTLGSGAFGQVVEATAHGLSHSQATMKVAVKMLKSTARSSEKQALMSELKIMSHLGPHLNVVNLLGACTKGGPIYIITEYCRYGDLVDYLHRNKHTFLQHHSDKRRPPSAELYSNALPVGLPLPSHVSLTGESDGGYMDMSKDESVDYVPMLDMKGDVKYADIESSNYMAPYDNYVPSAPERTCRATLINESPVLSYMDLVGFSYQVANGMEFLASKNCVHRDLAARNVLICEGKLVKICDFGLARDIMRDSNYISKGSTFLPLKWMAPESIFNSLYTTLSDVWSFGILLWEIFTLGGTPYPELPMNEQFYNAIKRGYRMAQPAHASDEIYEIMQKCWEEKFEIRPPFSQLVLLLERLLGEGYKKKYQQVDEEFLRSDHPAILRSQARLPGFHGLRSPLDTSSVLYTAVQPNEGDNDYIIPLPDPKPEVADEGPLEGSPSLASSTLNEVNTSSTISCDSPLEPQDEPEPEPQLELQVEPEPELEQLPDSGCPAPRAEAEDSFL

SMILES	IC50 (PDGFR-β) [nM]	IC50 [1] [nM]
Cc1c(F)cc(C(=O)N[C@H]2CCCC[C@@H]2O)cc1NCc1cnc(N)nc1 [Example 143, 3-{[(2-aminopyrimidin-5-yl)methyl]amino}-5-fluoro-N-[(1S,2S)-2-hydroxycyclohexyl]-4-methylbenzamide]	97	90
Cc1ccc(C(=O)N[C@H]2CCCC[C@@H]2O)cc1NCc1cnc2c(c1)OCCN2 [Example 144, 3-{[(3,4-dihydro-2H-pyrido[3,2-b][1,4]oxazin-7-yl)methyl]amino}-N-[(1S,2S)-2-hydroxycyclohexyl]-4-methylbenzamide]	65	39
Cc1ccc(C(=O)N[C@H]2CCCC[C@@H]2O)cc1NCc1cncc(-n2nccn2)c1 [Example 145, N-[(1S,2S)-2-hydroxycyclohexyl]-4-methyl-3-({[5-(2H-1,2,3-triazol-2-yl)pyridin-3-yl]methyl}amino)benzamide]	100	47
O=C(N[C@H]1CCCC[C@@H]1O)c1cccc(CNc2cncc(-c3ncccn3)c2)c1 [Example 150, N-[(1S,2S)-2-hydroxycyclohexyl]-3-({[5-(pyrimidin-2-yl)pyridin-3-yl]amino}methyl)benzamide]	360	300
O=C(N[C@H]1CCCC[C@@H]1O)c1ccc(F)c(CNc2cncc(-c3ncccn3)c2)c1 [Example 151, 4-fluoro-N-[(1S,2S)-2-hydroxycyclohexyl]-3-({[5-(pyrimidin-2-yl)pyridin-3-yl]amino}methyl)benzamide]	170	250
Cc1ncc(C(=O)N[C@H]2CCCC[C@@H]2O)cc1CNc1cncc(C#CC2CC2)c1 [Example 157, 5-({[5-(cyclopropylethynyl)pyridin-3-yl]amino}methyl)-N-[(1S,2S)-2-hydroxycyclohexyl]-6-methylpyridine-3-carboxamide]	180	52
O=C(N[C@H]1CCCC[C@@H]1O)c1ccc(Cl)c(OCc2cncc(-c3ncccn3)c2)c1 [Example 167, 4-chloro-N-[(1S,2S)-2-hydroxycyclohexyl]-3-{[5-(pyrimidin-2-yl)pyridin-3-yl]methoxy}benzamide]	210	210
O=C(N[C@H]1CCCC[C@@H]1O)c1ccc(Cl)c(COc2cncc(-c3ncccn3)c2)c1 [Example 170, 4-chloro-N-[(1S,2S)-2-hydroxycyclohexyl]-3-({[5-(pyrimidin-2-yl)pyridin-3-yl]oxy}methyl)benzamide]	200	130
O=C(N[C@H]1CCCC[C@@H]1O)c1ccc(F)c(/C=C(\F)c2cncc(-c3ccccn3)c2)c1 [Example 177, 3-[(Z)-2-([2,3′-bipyridin]-5′-yl)-2-fluoroethenyl]-4-fluoro-N-[(1S,2S)-2-hydroxycyclohexyl]benzamide]	15	11
O=C(N[C@H]1CCCC[C@@H]1O)c1ccc(F)c(/C=C(\F)c2cncc(-c3ncccn3)c2)c1 [Example 178, 4-fluoro-3-{(Z)-2-fluoro-2-[5-(pyrimidin-2-yl)pyridin-3-yl]ethenyl}-N-[(1S,2S)-2-hydroxycyclohexyl]benzamide]	26	44
Cc1ccc(C(=O)N[C@H]2CCCC[C@@H]2O)cc1/C=C(\F)c1cnc2cccnn12 [Example 179, 3-[(Z)-2-fluoro-2-(imidazo[1,2-b]pyridazin-3-yl)ethenyl]-N-[(1S,2S)-2-hydroxycyclohexyl]-4-methylbenzamide]	5.9	20

Further lines, with some results ahead:

IC50 (PDGFR-β) [nM]	SMILES	IC50 [1] [nM]
16	Cc1ncc(C(=O)N[C@H]2CCCC[C@@H]2O)cc1/C=C(\F)c1cncc(-c2ccccn2)c1 [Example 180, 5-[(Z)-2-([2,3′-bipyridin]-5′-yl)-2-fluoroethenyl]-N-[(1S,2S)-2-hydroxycyclohexyl]-6-methylpyridine-3-carboxamide]	32
100	Cc1ccc(C(=O)N[C@H]2CCCC[C@@H]2O)cc1/C=C(\F)c1cncc(CN2CCN(C)CC2)c1 [Example 181, 3-[(Z)-2-fluoro-2-{5-[(4-methylpiperazin-1-yl)methyl]pyridin-3-yl}ethenyl]-N-[(1S,2S)-2-hydroxycyclohexyl]-4-methylbenzamide]	500
33	Cc1ccc(C(=O)N[C@H]2CCCC[C@@H]2O)cc1/C=C(\F)c1cncc(CN2CCOCC2)c1 [Example 182, 3-[(Z)-2-fluoro-2-{5-[(morpholin-4-yl)methyl]pyridin-3-yl}ethenyl]-N-[(1S,2S)-2-hydroxycyclohexyl]-4-methylbenzamide]	190
30	Cc1ccc(C(=O)N[C@H]2CCCC[C@@H]2O)cc1/C=C(\F)c1ccc(NCC2CC2)nc1 [Example 183, 3-[(Z)-2-{6-[(cyclopropylmethyl)amino]pyridin-3-yl}-2-fluoroethenyl]-N-[(1S,2S)-2-hydroxycyclohexyl]-4-methylbenzamide]	24
51	O=C(N[C@H]1CCCC[C@@H]1O)c1ccc(F)c(/C=C(\F)c2cncc(N3CCOCC3)c2)c1 [Example 184, 4-fluoro-3-{(Z)-2-fluoro-2-[5-(morpholin-4-yl)pyridin-3-yl]ethenyl}-N-[(1S,2S)-2-hydroxycyclohexyl]benzamide]	82
5.1	O=C(N[C@H]1CCCC[C@@H]1O)c1ccc(F)c(/C=C(\F)c2cncc(NC3CCOCC3)c2)c1 [Example 185, 4-fluoro-3-[(Z)-2-fluoro-2-{5-[(oxan-4-yl)amino]pyridin-3-yl}ethenyl]-N-[(1S,2S)-2-hydroxycyclohexyl]benzamide]	28
150	CN1CCN(Cc2cncc(/C(F)=C/c3cc(C(=O)N[C@H]4CCCC[C@@H]4O)ccc3F)c2)CC1 [Example 186, 4-fluoro-3-[(Z)-2-fluoro-2-{5-[(4-methylpiperazin-1-yl)methyl]pyridin-3-yl}ethenyl]-N-[(1S,2S)-2-hydroxycyclohexyl]benzamide]	220
14	Cc1ncc(C(=O)N[C@H]2CCCC[C@@H]2O)cc1/C=C(\F)c1cncc(OCC2CC2)c1 [Example 187, 5-{(Z)-2-[5-(cyclopropylmethoxy)pyridin-3-yl]-2-fluoroethenyl}-N-[(1S,2S)-2-hydroxycyclohexyl]-6-methylpyridine-3-carboxamide]	20
68	Cc1ncc(C(=O)N[C@H]2CCCC[C@@H]2O)cc1/C=C(\F)c1cncc(N2CCOCC2)c1 [Example 188, 5-{(Z)-2-fluoro-2-[5-(morpholin-4-yl)pyridin-3-yl]ethenyl}-N-[(1S,2S)-2-hydroxycyclohexyl]-6-methylpyridine-3-carboxamide]	60
200	Cc1ncc(C(=O)N[C@H]2CCCC[C@@H]2O)cc1/C=C(\F)c1ccc(N)nc1 [Example 189, 5-[(Z)-2-(6-aminopyridin-3-yl)-2-fluoroethenyl]-N-[(1S,2S)-2-hydroxycyclohexyl]-6-methylpyridine-3-carboxamide]	90
110	Cc1ncc(C(=O)N[C@H]2CCCC[C@@H]2O)cc1/C=C(\F)c1cnc(N)nc1 [Example 190, 5-[(Z)-2-(2-aminopyrimidin-5-yl)-2-fluoroethenyl]-N-[(1S,2S)-2-hydroxycyclohexyl]-6-methylpyridine-3-carboxamide]	110
